From patent US11241440B2, “Dihydrooxadiazine compounds for treating infections and cancer” (VALORALIA I MÁS D, SL, priority 2016, dated 2022)
Like-named read-outs stand apart in the source and are kept apart here.

Columns and labels:
[1] = system: FTKGF (deficient in thymidine kinase protein); conditions: compound 2 μM
[2] = system: HIV virus (NL4.3-Ren); assay: microbe, parasite or virus in culture; format: cell-based; conditions: for Viral replication (%): relative to DMSO control, cells not given
[3] = system: HIV virus (NL4.3-Ren) and HIV virus pseudotyped with the envelope of VSV (NL4.3-VSV-Luc); assay: Virus entry test, HIV and VSV-pseudotyped HIV in parallel; format: cell-based; conditions: NL4.3-Ren and NL4.3-VSV-Luc in parallel
[4] = system: S. aureus; assay: Kirby-Bauer disk diffusion susceptibility test; format: cell-based, Staphylococcus aureus; conditions: S. aureus; 100 μg/disc; zone of inhibition
[5] = system: M. fortuitum; assay: Kirby-Bauer disk diffusion susceptibility test; format: cell-based; conditions: M. fortuitum; 100 μg/disc; zone of inhibition
[6] = system: XGF-G (gG-deficient PRV gIS8); format: cell-based, porcine pseudorabies virus (PRV)
[7] = Cellular viability, CellTiter Glo (Table V, cells not stated); format: cell-based; conditions: human, relative to DMSO control
Experimental: All assays for assessing anti-HIV activity were taken in parallel to determine cellular viability of the culture in the presence or absence of different concentrations of the isolated molecule. It was followed exactly the same methodology as in the anti-HIV assay except with the addition of complete DMEM medium instead of supernatant viral, in the same proportion, and the detection of the viability was performed with the viability detection kit CellTiter Glo (Promega), following manufacturer instructions. Viability is directly proportional to the luciferase activity obtained. All data are expressed as percentage relative to a control with DMSO at the same concentration. Antiviral activity and toxicity curves were performed to the compound at different concentrations.

[8] = system: CAL33; assay: MTT assay; format: cell-based
[9] = system: T98G; assay: MTT assay; format: cell-based
Text: This compound has a purple hue.
All tests are always in triplicate.
In Table VIII, quantification of the best IC50 is shown (concentration of compound that inhibits 50% of cell growth) using GraphPad Prism program.

[10] = system: N. cyriacigeorgica; assay: Kirby-Bauer disk diffusion susceptibility test; format: cell-based; conditions: N. cyriacigeorgica; 100 μg/disc; zone of inhibition
[11] = system: XGF-N (PRG-NIA3 deficient in the envelope glycoprotein gG); format: cell-based, porcine pseudorabies virus (PRV)
[12] = system: all tumor cell lines tested; assay: MTT assay, tumor cell lines of Table VII taken together
[13] = system: A. baumannii; assay: Kirby-Bauer disk diffusion susceptibility test; format: cell-based, Acinetobacter baumannii; conditions: A. baumannii; 100 μg/disc; zone of inhibition
[14] = system: equine herpes virus type 1 (EHV-1); assay: Viral titer reduction; format: cell-based; conditions: 2 μM
[15] = system: M. chelonae; assay: Kirby-Bauer disk diffusion susceptibility test; format: cell-based; conditions: M. chelonae; 100 μg/disc; zone of inhibition
[16] = system: HIV virus non-recombinant wild type (NL4.3); assay: Inhibition of non-recombinant wild type HIV; format: cell-based; conditions: Human immunodeficiency virus 1
[17] = system: B. cereus; assay: Kirby-Bauer disk diffusion susceptibility test; format: cell-based, Bacillus cereus; conditions: B. cereus
[18] = system: PC3; assay: MTT assay; format: cell-based; conditions: Homo sapiens, PC-3, 48 hours
[19] = system: HSV-2, strain G; conditions: compound 2 μM
[20] = system: S. epidermidis; assay: Kirby-Bauer disk diffusion susceptibility test; format: cell-based, Staphylococcus epidermidis; conditions: S. epidermidis; 100 μg/disc; zone of inhibition
[21] = system: MCF7; assay: MTT assay; format: cell-based; conditions: Homo sapiens, 48 hours
[22] = system: M. abscessus; assay: Kirby-Bauer disk diffusion susceptibility test; format: cell-based, Mycobacterium abscessus; conditions: M. abscessus; 100 μg/disc; zone of inhibition
[23] = system: all species tested (pathogenic bacteria); format: cell-based
[24] = system: PRV-NIA3; format: cell-based, porcine pseudorabies virus (PRV); conditions: compound 2 μM
[25] = system: recombinant herpesvirus FTKGF; assay: Fluorescence antiviral assay in Vero cells; format: cell-based, herpes simplex 1 virus; conditions: 0.01 MOI, 48 hours
Experimental: In the antiviral assay a special culture plate for fluorescence assays has been used, cultivated with Vero cells (200,000 cells/ml) and infected with the recombinant herpesvirus FTKGF at 0.01 MOI (Multiplicity of infection). For the standard curve (inhibition curve pattern), increasing concentrations of a known inhibitor of HSV infection, the phosphonoacetic acid (PAA), from 0 to 200 μg/ml, were used. The compound was tested at concentrations of […] over the virus. After 48 hours, the fluorescence intensity of FTKGF (reduction in fluorescence levels) in the plate reader Synergy HT Microplate Reader was measured.

[26] = system: NCI-H1299; assay: MTT assay; format: cell-based; conditions: Homo sapiens, 48 hours
[27] = system: HSV-1, strain F; conditions: compound 2 μM
[28] = system: SK-UT-1; assay: MTT assay; format: cell-based; conditions: Homo sapiens, 48 hours

Compound: CCCCCC1=NN(C(=O)CCO)OC(CCCCC)C1 (stereo not shown) [Compound, 1-(4,6-dipentyl-5,6-dihydro-2H-1,2,3-oxadiazin-2-yl)-3-hydroxypropan-1-one]
- reduction of the titer [1]: 2.5 logarithms
- Viral replication (%) ([2]; 0.19 μM): 45%
- Viral replication (%) ([2]; 0.39 μM): 14%
- Viral replication (%) ([2]; 0.78 μM): 3%
- Viral replication (%) ([2]; 1.56 μM): 1%
- Viral replication (%) ([2]; 3.12 μM): 0%
- Viral replication (%) ([2]; 6.25 μM): 0%
- Viral replication (%) ([2]; 12.5 μM): 0%
- Viral replication (%) ([2]; 25 μM): 0%
- Viral replication (%) ([2]; 50 μM): 0%
- Viral replication (%) ([2]; 100 μM): 0%
- IC50 ([2]; Human immunodeficiency virus 1, MT2, read-out: IC50 nM): 243 nM
- IC50 ([2]; Human immunodeficiency virus 1, PBMC, read-out: IC50 nM): 362 nM
- inhibition of HIV and VSV-pseudotyped HIV (dependence on virus entry) [3]: inhibited both viruses with the same potency
- Activity (mm), 100 μg/disc [4]: 20-22 mm
- Activity (mm), 100 μg/disc [5]: 44 mm
- reduction of the titer [6]: 0.7 logarithms
- viability at 0.19 µM ([7]; 0.19 μM): 114%
- viability at 0.39 µM ([7]; 0.39 μM): 113%
- viability at 0.78 µM ([7]; 0.78 μM): 109%
- viability at 1.56 µM ([7]; 1.56 μM): 96%
- viability at 3.12 µM ([7]; 3.12 μM): 78%
- viability at 6.25 µM ([7]; 6.25 μM): 31%
- viability at 12.5 µM ([7]; 12.5 μM): 7%
- viability at 25 µM ([7]; 25 μM): 4%
- viability at 50 µM ([7]; 50 μM): 2%
- viability at 100 µM ([7]; 100 μM): 0%
- concentration at which inhibition is obtained [8]: 10 nM
- optimal concentration of inhibition [8]: ≥ 50 nM
- IC50 ([8]; Homo sapiens, CAL-33, 48 hours): 42.8 nM
- concentration at which inhibition is obtained [9]: 50 nM
- optimal concentration of inhibition [9]: 100 nM
- IC50 ([9]; Homo sapiens, 48 hours): 106 nM
- Activity (mm), 100 μg/disc [10]: 35-38 mm
- reduction of the titer [11]: 1 logarithm
- antitumoral activity ([12]; all tumor cell lines tested): exhibited activity in all tumor cell lines tested
- concentration at which inhibition began to be relevant ([12]; rest of the cell lines (other than CAL33 and T98G)): 100 nM
- Activity (mm), 100 μg/disc [13]: 10-12 mm
- reduction of the titer [14]: 1 logarithm
- Activity (mm), 100 μg/disc [15]: 63 mm
- IC50 [16]: 333 nM
- kind of antibiotic activity [17]: bacteriostatic
- Activity (mm), 100 μg/disc ([17]; 100 μg/disc, zone of inhibition): 37-40 mm
- IC50 [18]: 217 nM
- reduction of the titer [19]: 3 logarithms
- Activity (mm), 100 μg/disc [20]: 16-18 mm
- IC50 [21]: 127 nM
- Activity (mm), 100 μg/disc [22]: 56 mm
- kind of antibiotic activity [23]: bactericidal
- reduction of the titer [24]: 0.5 logarithms
- inhibition at 0.2 µM ([25]; 200 nM): 60%
- inhibition at 0.4 µM ([25]; 400 nM): 92%
- IC50 [26]: 192 nM
- reduction of the titer [27]: 1.5 logarithms
- IC50 [28]: 199 nM
